Assay: Solubility of tenofovir in the aqueous neutralization solution
Assay type: physicochemical
Description: The present invention also relates to a method of adding a defined proportion of calcium hydride to magnesium butoxide that is a catalyst commonly used in the synthesis of DEPMPA from HPA to shorten the reaction time from 18 hours to 6 hours or less and cause the production of toluene calcium sulfonate to reduce highly deliquescent substances, and using an ion-exchange resin (Dowex 50W, sulfonic acid cation exchange resin) after neutralization with a counter-alkali solution in the dealcoholizing hydrolysis of the ester compound into tenofovir, thereby to reach a precise isoelectric point (pH 3.2) and further increase the synthesis yield of tenofovir. Generally, when the pH value is 2.5 to 3.5 in the neutralization, tenofovir (H2O, one-molecule crystal water) is dissolved in the aqueous solution at about 7 percent. When the neutralization is perfectly performed with the ion-exchange resin, the solubility of tenofovir can be reduced to 4 percent or below.

C[C@H](Cn1cnc2c(N)ncnc21)OCP(=O)(O)O [tenofovir, (R)-9-[2-(phosphonomethoxy)propyl]adenine]
solubility of tenofovir (neutralization perfectly performed with the ion-exchange resin): ≤ 4% | tenofovir dissolved in the aqueous solution (pH 2.5 to 3.5 in the neutralization, tenofovir H2O, one-molecule crystal water): about 7%

Reference: patent US10155007B2, “Synthesis method for improved tenofovir disoproxil fumarate using ion-exchange resin and method for preparing oral dissolving film form using the same” (Firson, priority 2014, dated 2018)
